{"source": "patent EP0147851B1", "about": "“Water soluble forms of polyene antibiotics, and process for preparing them” (priority 1983, dated 1985)", "key": {"[1]": {"experiment": "Dissolution of Nystatin complex and Nystatin base material in water at 37 °C", "assay_type": "physicochemical", "settings": "destilliertes Wasser, after the first 5 Minuten", "method": "Der auf die beschriebene Weise hergestellte Komplex zeigte bei den thermoanalytischen Untersuchungen im Vergleich zum Gemisch die gleichen Abweichungen wie der gemäß Beispiel 3 durch Lyophilisieren hergestellte Komplex. Die Löslichkeit von einer der Wirkstoffmenge von 10 mg/ml entsprechenden Menge Nystatin-γ-CD-Komplex und von Nystatingrundmaterial wurde in 15 ml destilliertem Wasser bei 37 °C untersucht. Die Lösungen wurden mit dem Magnetrührer bei einer Drehzahl von 150 min⁻¹ gerührt. Zu unterschiedlichen Zeitpunkten wurden Proben genommen, filtriert und spektrophotometrisch auf ihren Wirkstoffgehalt untersucht. Die Ergebnisse sind in der Tabelle 6 zusammengestellt.\nDas Spektrum der von der wäßrigen Suspension des Nystatingrundmaterials genommenen Proben war nicht auswertbar. […] Zuerst deformierte sich das Maximum um 290 nm und verschwand dann ganz, und im Bereich geringerer Wellenlänge zeigten sich neue Maxima, was auf Schädigung des konjugierten Chromophorsystems schließen läßt."}, "[2]": {"settings": "cited from earlier work"}, "[3]": {"experiment": "Blood level after subcutaneous administration (UV spectrum of serum)", "assay_type": "in vivo, CFY-Ratten", "settings": "subcutan, 200 mg/kg", "from_the_text": "• a) Die Resorption von Nystatin aus per os verabreichtem Nystatin-γ-CD-Komplex Die Resorption des Wirkstoffes wurde an Mäusen, an einem durch intravenöse Applikation einer Suspension von Candida albicans hervorgerufenen Sepsismodell untersucht. Die Sepsis verursachte innerhalb von 2-3 Tagen 100 %ige Mortalität. Den Versuchstieren wurde per os gemäß Beispiel 3 hergestellte, 8 % Nystatin enthaltende Komplex verabreicht. In einem Parallelversuch wurde Nystatin intravenös appliziert. Für beide Gruppen wurde die auf die unbehandelte Kontrolle bezogene Verlängerung der Überlebensdauer ermittelt. [formula] Wenn man diejenigen in Form des Komplexes per os verabreichten Nystatindosen mit denjenigen i.v. applizierten Nystatindosen vergleicht, die eine etwa gleiche Verlängerung der Überlebensdauer bewirkten (Tabelle 9, letzte Spalte),so läßt sich errechnen, daß aus dem Komplex durchschnittlich 6,2 % des Wirkstoffes in die Blutbahn gelangten. Bei den höchsten Dosen (i.v. 1,56 mg/kg, p.o. 25 mg/kg) ist das Zurückfallen der Überlebensdauer bereits auf die schwache Toxizität des Nystatins zurückzuführen. • b) Die Resorption von Nystatin aus subcutan appliziertem Nystatin-γ-CD-Komplex Weibliche CFY-Ratten eines durchschnittlichen Gewichtes von 180 g wurden mit Nystatin, mit Nystatin-γ-CD-Komplex (Wirkstoffgehalt9 8 %) beziehungsweise mit γ-CD behandelt. […]"}, "[4]": {"test_system": "aus menschlichem Blut hergestellten Suspensionen roter Blutkörperchen", "settings": "literature value; cited from earlier work"}, "Candida albicans": {"test_system": "Candida albicans", "experiment": "Biological potency of Nystatin, agar diffusion method", "assay_type": "cell-based", "from_the_text": "Die vorhergehenden Beispiele beweisen, daß die Polyenantibiotika mit γ-Cyclodextrin Einschlußkomplexe bilden und dadurch ihre Stabilität und Wasserlöslichkeit bedeutend steigt. Entscheidend ist jedoch, ob auch die antifungale Wirkung geblieben ist. Um diese Frage zu beantworten, wurde die antifungale Wirkung der auf unterschiedliche Weise hergestellten Komplexe sowohl sofort nach der Herstellung wie auch nach Lagerung unter Bedingungen, unter denen der nicht durch Komplexbildung geschützte Wirkstoff bereits beträchtliche Aktivitätseinbußen erleidet, untersucht. • a) Flavofungin-γ-Cyclodextrin-Komplex Die antifungale Wirkung der wäßrigen Lösung dieses Komplexes wurde an 6 Spaltpilzen und 13 Fadenpilzen untersucht. Die Ergebnisse sind in der Tabelle 7 zusammengefaßt. Auf Flavofungin bezogen war die minimale Hemmkonzentration in jedem Falle 10-25 µg/ml, was der Wirksamkeit des nicht komplexgebundenen Wirkstoffes entspricht. Es ist besonders bemerkenswert, daß die Substanz auch gegen phytopathogene Fusarien wirkt, d.h. eine Anwendung gegen pilzliche Pflanzenschädlinge begründet ist. Der komplexgebundene Wirkstoff wirkt in der gleichen Konzentration wie Flavofungin. Die Untersuchungenwurden mit der Agardiffusionsmethode vorgenommen. Der Komplex hat den Vorteil, daß zum Bereiten der Lösungen keine organischen Lösungsmittel (DMF bzw. DMSO) erforderlich sind. […]"}}, "note": "Like-named read-outs stand apart in the source and are kept apart here."}
{"smiles": "C[C@@H]1[C@H](O)[C@@H](C)/C=C/C=C/CC/C=C/C=C/C=C/C=C/C(O[C@H]2O[C@H](C)[C@@H](O)[C@H](N)[C@@H]2O)CC2O[C@](O)(CC(O)C(O)CCC(O)CC(O)CC(O)CC(=O)O[C@H]1C)CC(O)C2C(=O)O", "note": "(some centres unmarked) [Nystatin]", "values": [{"measurement": "Zersetzung in aqueous suspension (UV spectrum)", "setting": "[1]", "value": "fortschreitende Zersetzung"}, {"measurement": "Löslichkeit", "setting": "[2]; 70 %iges wäßriges Isopropanol", "value": "2,2 mg/ml"}, {"measurement": "Löslichkeit", "setting": "[2]; 75 %-iges wäßriges Äthanol", "value": 4, "unit": "mg/mL"}, {"measurement": "maximale Löslichkeit", "setting": "[2]; Methanol", "value": "9,2-11,2 mg/ml"}, {"measurement": "Löslichkeit", "setting": "[2]; reines Isopropanol", "value": "0,62 mg/ml"}, {"measurement": "Löslichkeit", "setting": "[2]; reines Äthanol", "value": "0,55 mg/ml"}, {"measurement": "Löslichkeit, increase", "setting": "[2]; zusammen mit Polyvinylpyrrolidon ausgefällt (coprecipitate)", "value": "8-10 mal"}, {"measurement": "Blutspiegel", "setting": "[3]", "value": "nichts nachzuweisen"}, {"measurement": "EH₅₀ (concentration for 50 % haemolysis)", "setting": "[4]", "value": 50, "unit": "µg/mL"}, {"measurement": "biologische Aktivität", "setting": "Candida albicans", "value": 5033, "unit": "E/mg"}, {"measurement": "biologische Aktivität after treatment without γ-CD", "setting": "Candida albicans; base substance treated as in Beispiel 5 (40 °C, 24 Stunden in water, lyophilised) without γ-CD", "value": "wesentlich schlechter"}]}
